Measured values: patent publication US20220228192A1, “Method To Evaluate Metabolic Activity Of Liver Enzymes” (Owlstone Medical Limited, priority 2018, published 2022)

What was measured:
[1] = Breath Biopsy: VOCs in exhaled breath after ingestion of a peppermint capsule; type: in vivo; conditions: for VOC level in breath compared to baseline pre-ingestion controls: breath captured 30 minutes after consumption of the peppermint capsule, FIG. 1; for VOC level in breath compared to baseline pre-ingestion controls / relative abundance among peppermint-related compounds in breath: single individual
Protocol: For comparison, two breath collections were made from the same individual prior to ingestion to provide a baseline concentration for the VOCs of interest. Breath samples were analysed in the Breath Biopsy® Clinical Lab by FAIMS and TD-GC-TOF mass spectrometry.

[2] = biological target: CYP3A4 (Homo sapiens, UniProt P08684); conditions: cited from earlier work
Sequence of CYP3A4 (P08684 whole entry): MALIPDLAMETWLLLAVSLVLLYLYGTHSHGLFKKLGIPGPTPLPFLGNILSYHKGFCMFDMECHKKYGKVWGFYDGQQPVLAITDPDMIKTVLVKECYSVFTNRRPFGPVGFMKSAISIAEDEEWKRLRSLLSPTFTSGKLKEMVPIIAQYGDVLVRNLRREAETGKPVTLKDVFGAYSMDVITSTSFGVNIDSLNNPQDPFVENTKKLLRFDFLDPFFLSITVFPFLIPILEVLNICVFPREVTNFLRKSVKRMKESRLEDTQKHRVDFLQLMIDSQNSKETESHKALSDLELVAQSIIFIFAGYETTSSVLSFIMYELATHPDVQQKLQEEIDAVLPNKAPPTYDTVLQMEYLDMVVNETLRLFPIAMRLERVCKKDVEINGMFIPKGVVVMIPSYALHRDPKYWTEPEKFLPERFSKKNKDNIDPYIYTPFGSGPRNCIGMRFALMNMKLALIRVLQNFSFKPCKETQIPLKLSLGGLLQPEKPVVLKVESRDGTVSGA

[3] = test system: CYP2C19 and CYP2C9 enzymes; test: Clinical study: limonene in exhaled breath, patients treated with an atherothrombotic drug versus untreated controls; type: in vivo; conditions: drug metabolised by CYP2C19 and CYP2C9 competes with limonene metabolism; FIG. 5
Text: FIG. 5. Limonene concentration in the exhaled breath of patients prescribed with an atherothrombotic drug that is metabolised by CYP2C19 and CYP2C9 enzymes.
The drug is metabolised by CYP2C19 and CYP2C9 enzymes. […] As less limonene is metabolised compare dot eh control group.

[4] = after consumption of the peppermint capsule

| Compound | VOC level in breath compared to baseline pre-ingestion controls [1] | metabolising enzyme [2] | concentration in breath [1, 4] | relative abundance among peppermint-related compounds in breath [1, 4] | limonene in exhaled breath, drug-treated patients versus untreated control group [3] |
| --- | --- | --- | --- | --- | --- |
| CC1CCC(C(C)C)C(O)C1 (racemic) [(±)-menthol] | large increase |  |  |  |  |
| CC12CCC(CC1)C(C)(C)O2 [eucalyptol] | large increase | specifically metabolised by CYP3A4 |  |  |  |
| C=C(C)[C@H]1CC=C(C)CC1 [limonene] | large increase |  | part-per-trillion (ppt) concentrations | most abundant | higher secretion of limonene into breath |
| CC1=CCC2CC1C2(C)C (stereo not drawn) [α-pinene] | large increase |  |  |  |  |
| C=C1CCC2CC1C2(C)C (stereo not drawn) [β-pinene] | large increase |  |  | most abundant |  |
